The values that follow come from PubChem BioAssay AID330 (DTP/NCI, 2004).

Several values for one entry are separate records, joined by “and”; a condition that tells them apart may be missing. Equal entries are not always repeated. Inconclusive results and toxic doses are left out. Peptide text beside a SMILES is read from it. * marks the point of attachment. Cbz = O=C(OCc1ccccc1)*

The subject of the assay is P388 leukemia ip, CD2F1 mice, survival T/C. Briefly: NCI In Vivo Anticancer Drug Screen. Data for tumor model P388 Leukemia (intraperitoneal) in CD2F1 (CDF1) mice. Conditions: endpoint: median survival time, higher = longer survival. Summed up: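 Mice carrying the transplanted tumor received test compound or vehicle. Survival was recorded in each group, and the value is the treated-group measurement divided by that of the vehicle-treated control group.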

The mark [1] stands for this setting: dose: 50.0 mg/kg/injection, schedule: Q01DX005 (ip), vehicle: Klucel (hydroxypropylcellulose) (HPC).
Where [2] appears, read: dose: 100.0 mg/kg/injection, schedule: Q01DX005 (ip), vehicle: Klucel (hydroxypropylcellulose) (HPC).
[3] abbreviates: dose: 200.0 mg/kg/injection, schedule: Q01DX005 (ip), vehicle: Klucel (hydroxypropylcellulose) (HPC).
Setting [4] is: dose: 60.0 mg/kg/injection, schedule: Q01DX005 (ip), vehicle: saline with Tween-80.
[5] abbreviates: dose: 120.0 mg/kg/injection, schedule: Q01DX005 (ip), vehicle: saline with Tween-80.
Setting [6] is: dose: 50.0 mg/kg/injection, schedule: Q01DX009 (ip), vehicle: saline.
The mark [7] stands for this setting: dose: 100.0 mg/kg/injection, schedule: Q01DX009 (ip), vehicle: saline.
Where [8] appears, read: dose: 200.0 mg/kg/injection, schedule: Q01DX009 (ip), vehicle: saline.
[9] abbreviates: dose: 50.0 mg/kg/injection, schedule: Q01DX009 (ip), vehicle: Klucel (hydroxypropylcellulose) (HPC).
Setting [10] is: dose: 100.0 mg/kg/injection, schedule: Q01DX009 (ip), vehicle: Klucel (hydroxypropylcellulose) (HPC).
The mark [11] stands for this setting: dose: 200.0 mg/kg/injection, schedule: Q01DX009 (ip), vehicle: Klucel (hydroxypropylcellulose) (HPC).
Where [12] appears, read: dose: 50.0 mg/kg/injection, schedule: Q01DX005 (ip), vehicle: saline with Tween-80.
Where [13] appears, read: dose: 100.0 mg/kg/injection, schedule: Q01DX005 (ip), vehicle: saline with Tween-80.
Setting [14] is: dose: 200.0 mg/kg/injection, schedule: Q01DX005 (ip), vehicle: saline with Tween-80.
[15] abbreviates: dose: 50.0 mg/kg/injection, schedule: Q01DX009 (ip), vehicle: saline with Tween-80.
[16] abbreviates: dose: 100.0 mg/kg/injection, schedule: Q01DX009 (ip), vehicle: saline with Tween-80.
Where [17] appears, read: dose: 200.0 mg/kg/injection, schedule: Q01DX009 (ip), vehicle: saline with Tween-80.
The mark [18] stands for this setting: dose: 240.0 mg/kg/injection, schedule: Q01DX005 (ip), vehicle: saline with Tween-80.

With `CCOC(=O)C(Cc1c[nH]c2ccccc12)NC(=O)C(Cc1ccccc1)NC(=O)C(Cc1cnc[nH]1)NC(=O)OCc1ccccc1` (stereo not drawn) (Cbz-His-Phe-Trp-OEt; configuration not given here), the T/C is 93 % of control under setting [1], 93 % of control under setting [2] and 89 % of control under setting [3].

For the compound `O=C(Nc1ncc([N+](=O)[O-])s1)c1cc(Cl)cc(Cl)c1`, the T/C reads like this: (dose: 12.5 mg/kg/injection, schedule: Q01DX005 (ip), vehicle: Klucel (hydroxypropylcellulose) (HPC)) 104 % of control; (dose: 25.0 mg/kg/injection, schedule: Q01DX005 (ip), vehicle: Klucel (hydroxypropylcellulose) (HPC)) 100 % of control; under setting [1], 100 % of control and 101 % of control.

As for `CCOC(=O)/C(C#N)=C/Nc1ccc(Cl)nc1Cl`, the T/C was 89 % of control under setting [4] and 86 % of control under setting [5].

In the case of `Nc1ccccc1SCc1csc(-c2ccc(Cl)cc2)n1`, the T/C is, setting by setting: under setting [6], 103 % of control; under setting [7], 114 % of control; under setting [8], 109 % of control.

`CC(/C=N/Nc1ccccc1)=N\N=c1/scc(-c2ccccc2)n1Cc1ccccc1`: the T/C (dose: 100.0 mg/kg/injection, schedule: Q01DX001 (ip), vehicle: saline with Tween-80) was 93 % of control; the T/C (dose: 200.0 mg/kg/injection, schedule: Q01DX001 (ip), vehicle: saline with Tween-80) is 97 % of control; the T/C (dose: 400.0 mg/kg/injection, schedule: Q01DX001 (ip), vehicle: saline with Tween-80) is 93 % of control.

For the compound `Cn1c(CO)cnc1-c1ccccc1`, the T/C is, setting by setting: under setting [9], 99 % of control; under setting [10], 100 % of control; under setting [11], 97 % of control.

For the compound `C/C=C/C=C/C(=O)Nc1ncc([N+](=O)[O-])s1`, the T/C runs as follows: under setting [9], 103 % of control; under setting [10], 104 % of control; under setting [11], 109 % of control.

As to `CN(c1ccccc1)N1C(=O)CC2(CCCC2)C1=O`, the T/C is, setting by setting: (dose: 100.0 mg/kg/injection, schedule: Q04DX002 (ip), vehicle: Klucel (hydroxypropylcellulose) (HPC)) 103 % of control; (dose: 200.0 mg/kg/injection, schedule: Q04DX002 (ip), vehicle: Klucel (hydroxypropylcellulose) (HPC)) 106 % of control; (dose: 400.0 mg/kg/injection, schedule: Q04DX002 (ip), vehicle: Klucel (hydroxypropylcellulose) (HPC)) 94 % of control.

Consider `N/C(=C\c1cnc2ccccc2n1)c1ccccc1Cl`, for which the T/C (dose: 60.0 mg/kg/injection, schedule: Q01DX005 (ip), vehicle: Klucel (hydroxypropylcellulose) (HPC)) was 91 % of control and the T/C (dose: 120.0 mg/kg/injection, schedule: Q01DX005 (ip), vehicle: Klucel (hydroxypropylcellulose) (HPC)) was 89 % of control.

For the compound `C#CC(C)(C)NC(=O)c1cccnc1Oc1ccccc1`, the T/C reads like this: under setting [12], 99 % of control; under setting [13], 97 % of control; under setting [14], 99 % of control.

In the case of `O=C(O)CCOc1cccc(OCCC(=O)O)c1`, the T/C runs as follows: under setting [1], 102 % of control; under setting [2], 98 % of control; under setting [3], 99 % of control.

As to `COc1ncnc2c1nnn2C1OC(CO)C(O)C1O` (stereo not given), the T/C was 96 % of control (dose: 25.0 mg/kg/injection, schedule: Q04DX003 (ip), vehicle: saline); 105 % of control (dose: 50.0 mg/kg/injection, schedule: Q04DX003 (ip), vehicle: saline); 100 % of control (dose: 100.0 mg/kg/injection, schedule: Q04DX003 (ip), vehicle: saline); 109 % of control (dose: 200.0 mg/kg/injection, schedule: Q04DX003 (ip), vehicle: saline).

In the case of `O=c1cc[nH]cc1[N+](=O)[O-]`, the T/C runs as follows: (dose: 12.5 mg/kg/injection, schedule: Q01DX009 (ip), vehicle: distilled water + Tween-80) 93 % of control; (dose: 25.0 mg/kg/injection, schedule: Q01DX009 (ip), vehicle: distilled water + Tween-80) 98 % of control; (dose: 25.0 mg/kg/injection, schedule: Q01DX009 (ip), vehicle: saline with Tween-80) 99 % of control; (dose: 50.0 mg/kg/injection, schedule: Q01DX009 (ip), vehicle: distilled water + Tween-80) 108 % of control; under setting [15], 98 % of control; (dose: 100.0 mg/kg/injection, schedule: Q01DX009 (ip), vehicle: distilled water + Tween-80) 101 % of control. In addition, the T/C under setting [16] is 105 % of control; the T/C under setting [7] is 104 % of control and 108 % of control; the T/C (dose: 200.0 mg/kg/injection, schedule: Q01DX009 (ip), vehicle: distilled water + Tween-80) was 107 % of control; the T/C under setting [17] is 104 % of control; the T/C under setting [8] is 100 % of control and 92 % of control.

On to `CC(C)=C1[C@@H]2C=C[C@@H]1[C@H]1C(=O)[C@@H]3O[C@]3(CO)C(=O)[C@H]12`, for which the T/C is 106 % of control under setting [12], 101 % of control under setting [13] and 108 % of control under setting [14].

As for `CC(C)C(=O)CC1(O)C(=O)Nc2ccc([N+](=O)[O-])cc21` (stereo not given), the T/C reads like this: under setting [4], 101 % of control; under setting [5], 93 % of control; under setting [18], 91 % of control.

Consider `CCC(O)C(C)C=O` (stereo not given), for which the T/C (dose: 60.0 mg/kg/injection, schedule: Q01DX005 (ip), vehicle: saline) was 107 % of control; the T/C (dose: 120.0 mg/kg/injection, schedule: Q01DX005 (ip), vehicle: saline) is 100 % of control; the T/C (dose: 240.0 mg/kg/injection, schedule: Q01DX005 (ip), vehicle: saline) is 104 % of control.

For `CC(C)(C)OC(=O)NC(CCCCNC(=O)C(F)(F)F)C(=O)ON1C(=O)CCC1=O` (stereo not given), the T/C by setting is: under setting [15], 102 % of control; under setting [16], 99 % of control; under setting [17], 106 % of control.

On to `Cc1ccc2c(/C=C/c3ccc(N(C)C)cc3)ccnc2c1C`, for which the T/C is 123 % of control (dose: 12.5 mg/kg/injection, schedule: Q01DX009 (ip), vehicle: saline with Tween-80); 150 % of control under setting [15]; 99 % of control under setting [16].

In the case of `O=C(NN(C(=O)c1ccccc1)c1ccccc1)c1ccccc1`, the T/C was 95 % of control under setting [12] and 92 % of control under setting [13].

As for `Cn1c2cc(=O)ccc2c2c3nc4ccccc4[nH]c3cc(O)c21`, the T/C reads like this: under setting [6], 98 % of control and 100 % of control; under setting [7], 95 % of control and 91 % of control; under setting [8], 100 % of control and 104 % of control.

Turning to `C=CCNc1ncnc2c1cnn2C`, the T/C runs as follows: (dose: 50.0 mg/kg/injection, schedule: Q04DX003 (ip), vehicle: saline with Tween-80) 104 % of control; (dose: 100.0 mg/kg/injection, schedule: Q04DX003 (ip), vehicle: saline with Tween-80) 104 % of control.

As to `CCC(C)C(NC(=O)OC(C)(C)c1ccc(-c2ccccc2)cc1)C(=O)O` (stereo not given), the T/C is 99 % of control under setting [12], 102 % of control under setting [13] and 95 % of control under setting [14].

For the compound `O=c1oc2ccccc2c2c1C(c1ccc3c(c1)OCO3)C=C(c1ccc3c(c1)OCO3)O2` (stereo not given), the T/C reads like this: (dose: 25.0 mg/kg/injection, schedule: Q01DX009 (ip), vehicle: water) 94 % of control; (dose: 50.0 mg/kg/injection, schedule: Q01DX009 (ip), vehicle: water) 94 % of control; (dose: 100.0 mg/kg/injection, schedule: Q01DX009 (ip), vehicle: water) 94 % of control; (dose: 200.0 mg/kg/injection, schedule: Q01DX009 (ip), vehicle: water) 92 % of control.

In the case of `O=C1OC(C2OC(=O)C(=O)C2C(=O)c2cccc([N+](=O)[O-])c2)C(C(=O)c2cccc([N+](=O)[O-])c2)C1=O` (stereo not given), the T/C was 100 % of control under setting [4], 105 % of control under setting [5] and 100 % of control under setting [18].

In the case of `COc1cccc(Oc2cccc[n+]2CC(C)=O)c1`, the T/C runs as follows: (dose: 25.0 mg/kg/injection, schedule: Q01DX005 (ip), vehicle: saline) 98 % of control; (dose: 50.0 mg/kg/injection, schedule: Q01DX005 (ip), vehicle: saline) 98 % of control.
